Data from patent publication US20240116923A1, “USE OF INDOLE, 6- AND 7-AZAINDOLE DERIVATIVES AS INHIBITORS OF FERROPTOSIS REGULATED CELL DEATH” (Seabelife, priority 2021, published 2024).
Read-outs that look alike come from different tables or passages of the source.

What was measured:
[1] = tested on: human neuroblastoma cell line SH-SY5Y; test: Neurotoxicity assay, SH-SY5Y cells + erastin or RSL3, MTS cell viability; assay type: cell-based; details: for EC50: Homo sapiens
Procedure: (§1) The excitotoxicity model used was the mouse hippocampal neuronal HT22 cells treated with glutamate [Dixon et al., Cell, 2012, 149(5), 1060-1072]. Ferroptosis and oxidative stress are both associated in this glutamate-induced cell death [Chu et al., Neural Regen. Res., 2020, 15(3), 528-536]. Phenotypic screening was also carried out with additional cell death inducers, erastin and RSL3 ((1S,3R)-Ras-selective lethal), in HT22 and SH-SY5Y (human neuroblastoma cells). Erastin and RSL3 are well described molecules, used as chemical tools for the study of ferroptosis regulation and neuronal pathologies [Lewerenz et al., Front. Neurosci., 2018, 12: 214; Reichert et al., Int. J. Mol. Sci., 2020, 21, 8765].
(§2) Mouse hippocampal neuronal cell line (HT22, ATCC) and human neuroblastoma cell line (SH-SY5Y, ATCC) were grown in Dulbecco's Modified Eagle Medium (DMEM, Gibco) supplemented with 10% fetal bovine serum (FBS, Gibco) at 37° C. under 5% CO2 atmosphere. Neurotoxicity was induced by erastin or RSL3 and excitotoxicity was induced by glutamate. Cells were seeded in 96-well plates at 5,000 and 10,000 cells/well for HT22 and SH-SY5Y cell lines, respectively. Cells were treated with 0.5-1 μM Erastin (HT22 cells) or 10 μM Erastin (SH-SY5Y cells) or 5-10 mM glutamate (HT22 cells) or 0.5 μM RSL3 (HT22 cells) or 5 μM RSL3 (SH-SY5Y cells) for 24 h in presence of increasing concentrations of inhibitors. Cells treated with DMSO only were used as controls. Cell viability was assessed by MTS assay (CellTiter 96 AQueous One Solution Cell Proliferation assay, Promega).
(§3) In FIGS. 1, 2A and 2B, an inhibitor was added to HT22 (FIG. 1: compound 6) or SH-SY5Y (FIG. 2A: compound 6; FIG. 2B: compound 25) cells in the presence or not of cell death inducers (erastin, glutamate or RSL3). […] EC50 values for compounds 1-28 were calculated from dose-response curves using Graphpad Prism software.

[2] = tested on: mouse hippocampal neuronal cell line HT22; test: Neurotoxicity and excitotoxicity assay, HT22 cells + glutamate, erastin or RSL3, MTS cell viability; assay type: cell-based; details: for EC50: Mus musculus
Procedure: as §1, §2, §3

[3] = SH-SY5Y, 24 h, read-out: EC50 SH-SY5Y Erastin
[4] = SH-SY5Y, 24 h, read-out: EC50 SH-SY5Y RSL3
[5] = HT-22, 24 h, read-out: EC50 HT22 Erastin
[6] = HT-22, 24 h, read-out: EC50 HT22 Glutamate
[7] = HT-22, 24 h, read-out: EC50 HT22 RSL3
[8] = HT-22, HT22 cells, 0.5 μM RSL3, 24 h, MTS, read-out: EC50 HT22 RSL3
[9] = HT-22, HT22 cells, 0.5-1 μM Erastin, 24 h, MTS, read-out: EC50 HT22 Erastin
[10] = HT-22, HT22 cells, 5-10 mM glutamate, 24 h, MTS, read-out: EC50 HT22 Glutamate
[11] = SH-SY5Y cells, 10 μM Erastin, 24 h, MTS, read-out: EC50 SH-SY5Y Erastin

SMILES | EC50 [2, 8] | EC50 [2, 9] | EC50 [2, 10] | EC50 [1, 11] | also measured
COc1ccc(-c2cc3ccccc3[nH]2)cc1 [Compound 2, 2-(4-methoxyphenyl)-1H-indole] |  |  |  |  | EC50 [1, 3]: 2.9 µM; EC50 [1, 4]: 7.43 µM; EC50 [2, 5]: 7.92 µM; EC50 [2, 6]: 2.66 µM; EC50 [2, 7]: 46 µM
COc1ccc(-c2cc3ccccc3n2O)cc1 [Compound 3, 2-(4-methoxyphenyl)-1H-indol-1-ol] | 0.32 µM | 0.92 µM | 1.13 µM |  | 
CCOc1ccc(-c2cc3ccncc3[nH]2)cc1 [Compound 4, 2-(4-ethoxyphenyl)-1H-pyrrolo[2,3-c]pyridine] | 27.8 µM | > 25 µM | > 25 µM | 7.66 µM | EC50 ([1]; SH-SY5Y cells, 5 μM RSL3, 24 h, MTS, read-out: EC50 SH-SY5Y RSL3): 5.42 µM
CCOc1ccc(-c2cc3ccncc3n2O)cc1 [Compound 5, 2-(4-ethoxyphenyl)-1Hpyrrolo[2,3-c]pyridin-1-ol] | 2.79 µM | 3.23 µM | 3.6 µM | 0.52 µM | 
CCOc1ccc(-c2cc3ccncc3n2OC(=O)c2ccccc2)cc1 [Compound 6, 2-(4-ethoxyphenyl)-1H-pyrrolo[2,3-c]pyridin-1-yl benzoate] | 2.31 µM | 2.05 µM | 1.64 µM | 0.18 µM | effect on cell viability without cell death inducers (potential cytotoxic effect of the molecule alone) ([1]; SH-SY5Y cells, 24 h, doses tested maximum 50 or 100 μM): no effect on cell viability; concentration reaching almost total inhibition of induced cell death ([1]; SH-SY5Y cells, in the presence of a ferroptosis inducer): 1 µM; effect on cell viability without cell death inducers (potential cytotoxic effect of the molecule alone) ([2]; HT22 cells, 24 h, doses tested maximum 50 or 100 μM): no effect on cell viability; concentration reaching almost total inhibition of induced cell death ([2]; HT22 cells, in the presence of a ferroptosis inducer): 10 µM
NCC(=O)Oc1ccc(-c2cc3cccnc3[nH]2)cc1 [Compound 8, 4-(1H-pyrrolo[2,3-b]pyridin-2-yl)phenyl glycinate] |  |  |  |  | EC50 [1, 3]: 21.5 µM; EC50 [1, 4]: 5.98 µM; EC50 [2, 5]: > 25 µM; EC50 [2, 6]: > 25 µM; EC50 [2, 7]: > 50 µM
CC(CO)(CO)C(=O)Oc1ccc(-c2cc3cccnc3[nH]2)cc1 [Compound 10, 4-(1H-pyrrolo[2,3-b]pyridin-2-yl)phenyl 3-hydroxy-2-(hydroxymethyl)-2-methylpropanoate] | > 50 µM | > 25 µM | > 25 µM | 13.7 µM | 
CCOc1ccc(-c2cc3c(Nc4ccc(C(=O)c5ccccc5)cc4)ccnc3[nH]2)cc1 [Compound 11, (4-((2-(4-ethoxyphenyl)-1H-pyrrolo[2,3-b]pyridin-4-yl)amino)phenyl)(phenyl)methanone] | 1.16 µM | 0.32 µM | 0.14 µM | 0.15 µM | 
CCOc1ccc(-c2cc3c(NCc4ccccc4)ccnc3[nH]2)cc1 [Compound 12, N-benzyl-2-(4-ethoxyphenyl)-1H-pyrrolo[2,3-b]pyridin-4-amine] | 0.94 µM | 0.91 µM | 0.5 µM | 0.43 µM | 
CCOc1ccc(-c2[nH]c3ncccc3c2CN2CCN(C)CC2)cc1 [Compound 16, 2-(4-ethoxyphenyl)-3-((4-methylpiperazin-1-yl)methyl)-1H-pyrrolo[2,3-b]pyridine] |  |  |  | > 50 µM | 
CCOc1ccc(-c2[nH]c3ncccc3c2I)cc1 [Compound 17, 2-(4-ethoxyphenyl)-3-iodo-1H-pyrrolo[2,3-b]pyridine] |  |  |  | > 50 µM | 
CCOc1ccc(-c2[nH]c3ncccc3c2C(O)C(F)(F)F)cc1 (stereo not drawn) [Compound 18, 1-(2-(4-ethoxyphenyl)-1H-pyrrolo[2,3-b]pyridin-3-yl)-2,2,2-trifluoroethan-1-ol] |  |  |  | > 50 µM | 
Oc1ccc(-c2cc3cc(Br)ccc3[nH]2)cc1 [Compound 30, 4-(5-bromo-TH-indol-2-yl)phenol] |  |  |  |  | EC50 [2, 5]: 7.5 µM; EC50 [2, 7]: 7.5 µM
c1ccc(COc2ccc(-c3cc4ccccc4[nH]3)cc2)cc1 [Compound 31, 2-(4-(benzyloxy)phenyl)-1H-indole] |  |  |  |  | EC50 [2, 5]: > 25 µM; EC50 [2, 7]: > 15 µM
Oc1ccc2[nH]c(-c3ccc(OCc4ccccc4)cc3)cc2c1 [Compound 32, 2-(4-(benzyloxy)phenyl)-1H-indol-5-ol] | 1 µM | 2 µM |  |  | 
Cn1c(-c2ccc(O)cc2)cc2ccccc21 [Compound 33, 4-(1-methyl-1H-indol-2-yl)phenol] | 10.8 µM | 32 µM | 16 µM |  | 
